Each structure is given as a SMILES string.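 Grown in 96-well plates, cells were treated for 48 hours with each compound at five concentrations. Insufficient inhibition: endpoint recorded as highest concentration tested. The concentration for full growth arrest is given as TGI.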 Some results are limits rather than exact numbers.

Some test systems named below: IGROV1 ovarian; HL-60(TB) leukemia; SK-MEL-5 melanoma; OVCAR-5 ovarian; SNB-75 CNS; HCC-2998 colon; U251 CNS; MCF7 breast; OVCAR-3 ovarian; A549 NSCLC; MALME-3M melanoma; MOLT-4 leukemia; HT29 colon; HCT-116 colon; OVCAR-8 ovarian; LOX IMVI melanoma; A498 renal; SF-539 CNS; SK-OV-3 ovarian.
What all share (experiment): DTP human tumour cell line panel, 48 h

With `CC(NC1=NCCO1)c1ccsc1` (stereo not drawn), the TGI (commonly the concentration at which net growth stops) was greater than 100 µM in the assay on IGROV1 ovarian; 53.3 µM in the assay on HL-60(TB) leukemia; 40.1 µM with SK-MEL-5 melanoma; greater than 100 µM with OVCAR-5 ovarian; 47.3 µM in the assay with SNB-75 CNS; greater than 100 µM in the assay on HCC-2998 colon. Also, the TGI is 36.8 µM in the assay on U251 CNS; greater than 100 µM in the assay with MCF7 breast; 80.3 µM in the assay with OVCAR-3 ovarian; greater than 100 µM with A549 NSCLC; 58 µM in the assay on MALME-3M melanoma; 52.3 µM in the assay with MOLT-4 leukemia. The TGI in the assay with HT29 colon was 42.7 µM; in the assay on HCT-116 colon, 34.1 µM; in the assay with OVCAR-8 ovarian it was 77.7 µM; with LOX IMVI melanoma, 35 µM; with A498 renal, greater than 100 µM; in the assay with SF-539 CNS, 38.2 µM. For the same compound, the TGI in the assay with SK-OV-3 ovarian was greater than 100 µM.

Turning to `CN1CCOC1(C)c1ccccc1` (stereo not drawn), the TGI in the assay on IGROV1 ovarian, in the assay with HL-60(TB) leukemia, with SK-MEL-5 melanoma, in the assay on OVCAR-5 ovarian, in the assay on SNB-75 CNS and with HCC-2998 colon was greater than 100 µM throughout. Also, the TGI in the assay on U251 CNS, with MCF7 breast, in the assay on OVCAR-3 ovarian, with A549 NSCLC, in the assay on MALME-3M melanoma and in the assay on MOLT-4 leukemia was greater than 100 µM each time. In addition, the TGI with HT29 colon, with HCT-116 colon, in the assay on OVCAR-8 ovarian, in the assay on LOX IMVI melanoma, with A498 renal and in the assay with SF-539 CNS was greater than 100 µM throughout. The compound further had a TGI with SK-OV-3 ovarian greater than 100 µM.

As for `COc1ccc(/C(=N/Nc2nc3ccccc3n2Cc2ccccc2)C(=O)O)cc1`, the concentration for total growth inhibition (TGI) in the assay on IGROV1 ovarian is 40.7 µM; in the assay on HL-60(TB) leukemia, 11.5 µM; with SK-MEL-5 melanoma it was 37.6 µM; in the assay with OVCAR-5 ovarian it was greater than 100 µM; in the assay on SNB-75 CNS, 81.9 µM; with HCC-2998 colon it was 48.3 µM. Besides, the concentration for total growth inhibition (TGI) with U251 CNS was greater than 100 µM; with MCF7 breast, 51.2 µM; in the assay with OVCAR-3 ovarian it was greater than 100 µM; in the assay on A549 NSCLC, greater than 100 µM; with MALME-3M melanoma it was 91.7 µM; in the assay on MOLT-4 leukemia, 79.6 µM. Moreover, the total growth inhibition concentration (TGI) was greater than 100 µM with HT29 colon; greater than 100 µM in the assay on HCT-116 colon; greater than 100 µM in the assay with OVCAR-8 ovarian; 35.5 µM in the assay on LOX IMVI melanoma; 44.5 µM in the assay on A498 renal; 85.1 µM in the assay on SF-539 CNS. In addition, in the assay on SK-OV-3 ovarian, the TGI turned out to be 55 µM.

With `C#CCC(O)c1ccc(OC)c(OCc2ccccc2)c1` (stereo not drawn), the concentration for total growth inhibition (TGI) in the assay with IGROV1 ovarian is greater than 100 µM; in the assay on HL-60(TB) leukemia, greater than 100 µM; with SK-MEL-5 melanoma, greater than 100 µM; with OVCAR-5 ovarian, greater than 100 µM; with SNB-75 CNS, 78.4 µM; in the assay on HCC-2998 colon, greater than 100 µM. Besides, the TGI was greater than 100 µM in the assay on U251 CNS; greater than 100 µM with MCF7 breast; greater than 100 µM in the assay on OVCAR-3 ovarian; greater than 100 µM in the assay with A549 NSCLC; greater than 100 µM in the assay on MALME-3M melanoma; 56.6 µM with MOLT-4 leukemia. The TGI with HT29 colon, in the assay with HCT-116 colon, with OVCAR-8 ovarian, in the assay on LOX IMVI melanoma, in the assay with A498 renal and in the assay with SF-539 CNS was greater than 100 µM in each case. For the same compound, the TGI in the assay with SK-OV-3 ovarian was greater than 100 µM.

For the compound `Cc1cc(N(C)c2ccccc2)nc(N(C)c2ccccc2)n1`, the concentration for total growth inhibition (TGI) with IGROV1 ovarian is greater than 100 µM; in the assay on HL-60(TB) leukemia, 59.6 µM; in the assay with SK-MEL-5 melanoma, 69.1 µM; in the assay on OVCAR-5 ovarian, 52.6 µM; with SNB-75 CNS it was greater than 100 µM; in the assay on HCC-2998 colon it was 79.6 µM. In addition, the TGI in the assay on U251 CNS is greater than 100 µM; with MCF7 breast, 68.4 µM; in the assay with OVCAR-3 ovarian it was 70.4 µM; with A549 NSCLC, greater than 100 µM; with MALME-3M melanoma it was 55.8 µM; with MOLT-4 leukemia it was 99.9 µM. Further, the TGI in the assay with HT29 colon is 39 µM; in the assay with HCT-116 colon it was 37.6 µM; with OVCAR-8 ovarian, greater than 100 µM; in the assay on LOX IMVI melanoma, 27.9 µM; with A498 renal it was greater than 100 µM; with SF-539 CNS, 66.5 µM. In addition, the TGI in the assay on SK-OV-3 ovarian was greater than 100 µM.

On to `NC(=S)NN=Cc1ccccc1OCc1cccc(COc2ccccc2C=NNC(N)=S)n1`, for which the total growth inhibition concentration (TGI) is 31.6 µM with IGROV1 ovarian; greater than 100 µM with HL-60(TB) leukemia; greater than 100 µM in the assay on SK-MEL-5 melanoma; greater than 100 µM in the assay on OVCAR-5 ovarian; 5.62 µM in the assay with SNB-75 CNS; greater than 100 µM in the assay on HCC-2998 colon. In addition, the TGI was 19.3 µM in the assay with U251 CNS; greater than 100 µM in the assay with MCF7 breast; greater than 100 µM with OVCAR-3 ovarian; greater than 100 µM in the assay with A549 NSCLC; greater than 100 µM with MALME-3M melanoma; greater than 100 µM in the assay with MOLT-4 leukemia. Further, the TGI with HT29 colon is greater than 100 µM; with HCT-116 colon, greater than 93.6 µM; with OVCAR-8 ovarian, greater than 100 µM; with LOX IMVI melanoma, greater than 100 µM; in the assay with A498 renal, 47.7 µM; in the assay with SF-539 CNS, greater than 34.6 µM. Moreover, the total growth inhibition concentration (TGI) in the assay with SK-OV-3 ovarian turned out to be 29.6 µM.

Consider `CC(O)C1(O)C(O)CC(OC2c3cc4c(c(O)c3[C@@H]3C[C@@]2(C)OC32C=c3cc[nH]c3=N2)C(=O)c2cccc(O)c2C4=O)OC1C` (stereo partly drawn), for which the TGI with IGROV1 ovarian was determined as 3.22 µM; with HL-60(TB) leukemia, 3.07 µM; in the assay with SK-MEL-5 melanoma, 5.56 µM; in the assay on OVCAR-5 ovarian it was 9.49 µM; in the assay with SNB-75 CNS it was 8 µM; with HCC-2998 colon it was 2.84 µM. The TGI came to 9.03 µM in the assay with U251 CNS; 1.69 µM in the assay with MCF7 breast; 6.45 µM in the assay with OVCAR-3 ovarian; 4.4 µM with A549 NSCLC; 2.15 µM in the assay on MALME-3M melanoma; 2.67 µM with MOLT-4 leukemia. The concentration for total growth inhibition (TGI) in the assay with HT29 colon stood at 2.68 µM; in the assay with HCT-116 colon, 3.31 µM; with OVCAR-8 ovarian, 4.75 µM; in the assay on LOX IMVI melanoma, 3.17 µM; in the assay on A498 renal, 2.75 µM; in the assay with SF-539 CNS, 2.79 µM. In addition, the concentration for total growth inhibition (TGI) with SK-OV-3 ovarian is 9.47 µM.

The values are drawn from PubChem BioAssay (NCI).
